# Assay results reported in patent publication US20140235705A1, “FORMULATIONS OF THIOPHENE COMPOUNDS” (Vertex Pharmaceuticals Incorporated, priority 2011, published 2014).
# Counter-ions that a name gives are not always drawn.
# Assay: Solubility (Cs) of Compound (1) solid forms in FESSIF
# Assay type: physicochemical
# Settings: FESSIF (fed state simulated intestinal fluid)
# Excerpt: Simulated human intestinal media suitable for the invention can be found in the art, for example, those described in Jantratid, et al., “Dissolution Media Simulating Conditions in the Proximal Human Gastrointestinal Tract: An Update,” Pharmaceutical Research, 25(7), 2008. In one embodiment, a human fed state simulated intestinal fluid ([…]) is employed in the invention. A typical […] includes sodium hydroxide, citric acid, sodium chloride, sodium taurocholate, and lecithin (L-Alpha-Phosphatidyl Choline). A specific example is described in Example 9 below. […] [table]
row,solubility of Compound (1) in FESSIF,SMILES
1,0.9 mg/mL,"CC(C)(C)C#Cc1cc(N(C(=O)[C@H]2CC[C@H](C)CC2)[C@H]2CC[C@H](O)CC2)c(C(=O)O)s1 [Form A of Compound (1), 5-(3,3-Dimethyl-but-1-ynyl)-3-[(trans-4-hydroxy-cyclohexyl)-(trans-4-methyl-cyclohexanecarbonyl)-amino]-thiophene-2-carboxylic acid]"
2,0.825 mg/mL,"CC(C)(C)C#Cc1cc(N(C(=O)[C@H]2CC[C@H](C)CC2)[C@H]2CC[C@H](O)CC2)c(C(=O)O)s1 [Form M of Compound (1), 5-(3,3-Dimethyl-but-1-ynyl)-3-[(trans-4-hydroxy-cyclohexyl)-(trans-4-methyl-cyclohexanecarbonyl)-amino]-thiophene-2-carboxylic acid]"
3,2.6 mg/mL,"CC(C)(C)C#Cc1cc(N(C(=O)[C@H]2CC[C@H](C)CC2)[C@H]2CC[C@H](O)CC2)c(C(=O)O)s1 [tromethamine salt of Compound (1), 5-(3,3-Dimethyl-but-1-ynyl)-3-[(trans-4-hydroxy-cyclohexyl)-(trans-4-methyl-cyclohexanecarbonyl)-amino]-thiophene-2-carboxylic acid]"
